Several values for one entry are separate records, joined by “and”; a condition that tells them apart may be missing. Equal values may be shown once.
Settings: for speed of sound / mass density / vapor or sublimation pressure / viscosity: Liquid; for speed of sound: Frequency=3 MHz, Single path-length method; for mass density: Vibrating tube method; for vapor or sublimation pressure: Ebulliometric method (Recirculating still); for surface tension liquid-gas: Drop volume; for viscosity: Capillary tube (Ostwald / Ubbelohde) method

CCc1cccs1 [2-ethylthiophene]
Settings	mass density	speed of sound [m/s]	viscosity [mPa·s]
313.15 K, 100 kPa	973.34 kg/m3 and 973.3 kg/m3	1237.7	–
313.15 K, 2000 kPa	975 kg/m3	–	–
313.15 K, 5000 kPa	977.54 kg/m3	–	–
313.15 K, 7000 kPa	979.22 kg/m3	–	–
313.15 K, 10000 kPa	981.68 kg/m3	–	–
313.15 K, 15000 kPa	985.61 kg/m3	–	–
313.15 K, 20000 kPa	989.42 kg/m3	–	–
313.15 K, 25000 kPa	993.09 kg/m3	–	–
313.15 K, 30000 kPa	996.63 kg/m3	–	–
313.15 K, 35000 kPa	1000.06 kg/m3	–	–
313.15 K, 40000 kPa	1003.38 kg/m3	–	–
313.15 K, 45000 kPa	1006.6 kg/m3	–	–
313.15 K, 50000 kPa	1009.71 kg/m3	–	–
313.15 K, 55000 kPa	1012.75 kg/m3	–	–
313.15 K, 60000 kPa	1015.69 kg/m3	–	–
313.15 K, 65000 kPa	1018.54 kg/m3	–	–
315.65 K, 100 kPa	970.77 kg/m3	1227.7	0.613
318.15 K, 100 kPa	968.32 kg/m3 and 968.24 kg/m3	1218	0.5981
318.15 K, 2000 kPa	970.02 kg/m3	–	–
318.15 K, 5000 kPa	972.64 kg/m3	–	–
318.15 K, 7000 kPa	974.36 kg/m3	–	–
318.15 K, 10000 kPa	976.86 kg/m3	–	–
318.15 K, 15000 kPa	980.93 kg/m3	–	–
318.15 K, 20000 kPa	984.83 kg/m3	–	–
318.15 K, 25000 kPa	988.58 kg/m3	–	–
318.15 K, 30000 kPa	992.22 kg/m3	–	–
318.15 K, 35000 kPa	995.71 kg/m3	–	–
318.15 K, 40000 kPa	999.11 kg/m3	–	–
318.15 K, 45000 kPa	1002.39 kg/m3	–	–
318.15 K, 50000 kPa	1005.57 kg/m3	–	–
318.15 K, 55000 kPa	1008.66 kg/m3	–	–
318.15 K, 60000 kPa	1011.66 kg/m3	–	–
318.15 K, 65000 kPa	1014.56 kg/m3	–	–
320.65 K, 100 kPa	965.71 kg/m3	1208.3	0.584
323.15 K, 100 kPa	963.21 kg/m3 and 963.18 kg/m3	1198	0.5702
323.15 K, 2000 kPa	964.97 kg/m3	–	–
323.15 K, 5000 kPa	967.69 kg/m3	–	–
323.15 K, 7000 kPa	969.44 kg/m3	–	–
323.15 K, 10000 kPa	972.03 kg/m3	–	–
323.15 K, 15000 kPa	976.2 kg/m3	–	–
323.15 K, 20000 kPa	980.22 kg/m3	–	–
323.15 K, 25000 kPa	984.06 kg/m3	–	–
323.15 K, 30000 kPa	987.78 kg/m3	–	–
323.15 K, 35000 kPa	991.35 kg/m3	–	–
323.15 K, 40000 kPa	994.81 kg/m3	–	–
323.15 K, 45000 kPa	998.17 kg/m3	–	–
323.15 K, 50000 kPa	1001.41 kg/m3	–	–
323.15 K, 55000 kPa	1004.56 kg/m3	–	–
323.15 K, 60000 kPa	1007.62 kg/m3	–	–
323.15 K, 65000 kPa	1010.59 kg/m3	–	–
325.65 K, 100 kPa	960.64 kg/m3	1188.3	0.5566
328.15 K, 100 kPa	958.12 kg/m3 and 958.1 kg/m3	1179.1	0.5437
328.15 K, 2000 kPa	959.94 kg/m3	–	–
328.15 K, 5000 kPa	962.71 kg/m3	–	–
328.15 K, 7000 kPa	964.53 kg/m3	–	–
328.15 K, 10000 kPa	967.18 kg/m3	–	–
328.15 K, 15000 kPa	971.45 kg/m3	–	–
328.15 K, 20000 kPa	975.56 kg/m3	–	–
328.15 K, 25000 kPa	979.5 kg/m3	–	–
328.15 K, 30000 kPa	983.31 kg/m3	–	–
328.15 K, 35000 kPa	986.98 kg/m3	–	–
328.15 K, 40000 kPa	990.51 kg/m3	–	–
328.15 K, 45000 kPa	993.94 kg/m3	–	–
328.15 K, 50000 kPa	997.24 kg/m3	–	–
328.15 K, 55000 kPa	1000.47 kg/m3	–	–
328.15 K, 60000 kPa	1003.58 kg/m3	–	–
328.15 K, 65000 kPa	1006.6 kg/m3	–	–
330.65 K, 100 kPa	955.55 kg/m3	1168.7	0.5313
333.15 K, 100 kPa	952.99 kg/m3 and 953 kg/m3	1159.1	0.519
333.15 K, 2000 kPa	954.85 kg/m3	–	–
333.15 K, 5000 kPa	957.72 kg/m3	–	–
333.15 K, 7000 kPa	959.58 kg/m3	–	–
333.15 K, 10000 kPa	962.31 kg/m3	–	–
333.15 K, 15000 kPa	966.72 kg/m3	–	–
333.15 K, 20000 kPa	970.93 kg/m3	–	–
333.15 K, 25000 kPa	974.97 kg/m3	–	–
333.15 K, 30000 kPa	978.86 kg/m3	–	–
333.15 K, 35000 kPa	982.61 kg/m3	–	–
333.15 K, 40000 kPa	986.22 kg/m3	–	–
333.15 K, 45000 kPa	989.73 kg/m3	–	–
333.15 K, 50000 kPa	993.09 kg/m3	–	–
333.15 K, 55000 kPa	996.39 kg/m3	–	–
333.15 K, 60000 kPa	999.56 kg/m3	–	–
333.15 K, 65000 kPa	1002.62 kg/m3	–	–
335.65 K, 100 kPa	950.44 kg/m3	1149.9	0.5072
338.15 K, 100 kPa	947.86 kg/m3 and 947.89 kg/m3	1140.3	0.4965
338.15 K, 2000 kPa	949.78 kg/m3	–	–
338.15 K, 5000 kPa	952.72 kg/m3	–	–
338.15 K, 7000 kPa	954.65 kg/m3	–	–
338.15 K, 10000 kPa	957.46 kg/m3	–	–
338.15 K, 15000 kPa	961.97 kg/m3	–	–
338.15 K, 20000 kPa	966.32 kg/m3	–	–
338.15 K, 25000 kPa	970.44 kg/m3	–	–
338.15 K, 30000 kPa	974.41 kg/m3	–	–
338.15 K, 35000 kPa	978.26 kg/m3	–	–
338.15 K, 40000 kPa	981.96 kg/m3	–	–
338.15 K, 45000 kPa	985.53 kg/m3	–	–
338.15 K, 50000 kPa	988.98 kg/m3	–	–
338.15 K, 55000 kPa	992.31 kg/m3	–	–
338.15 K, 60000 kPa	995.56 kg/m3	–	–
338.15 K, 65000 kPa	998.71 kg/m3	–	–

Settings	surface tension liquid-gas [mN/m]	vapor or sublimation pressure [kPa]
315.55 K	–	3.01
315.65 K	28.16	–
318.15 K	27.84	–
320.65 K	27.54	–
321.73 K	–	4.095
323.15 K	27.27	–
325.65 K	26.93	–
326.03 K	–	5.05
328.15 K	26.69	–
330.65 K	26.36	–
330.78 K	–	6.285
333.15 K	26.03	–
335.65 K	25.74	–
336.67 K	–	8.17
338.15 K	25.45	–
342 K	–	10.22
346.57 K	–	12.34
351.71 K	–	15.14
356.68 K	–	18.34
360.83 K	–	21.48
365.1 K	–	24.99
370.4 K	–	30.07
374.16 K	–	34.19
379.56 K	–	40.88
382.77 K	–	45.27
387.16 K	–	51.94
390.75 K	–	57.93
394.79 K	–	65.36
397.67 K	–	71.07
401.74 K	–	79.78
404.64 K	–	86.5
406.64 K	–	91.35
409.15 K	–	97.8
410.46 K	–	101.33

— the NIST ThermoML archive (doi:10.1021/acs.jced.8b00153)
